4 compounds from ChEMBL document CHEMBL4673200, “Hydride-induced Meisenheimer complex formation reflects activity of nitro aromatic anti-tuberculosis compounds” (RSC Med Chem, 2021) can be followed below.

The source made the active and inactive calls. The calls are words filed in the database; no cut-off is given here.

The test system of test [1] is Mycobacterium tuberculosis variant bovis BCG. Kind of test: Inhibition of Mycobacterium bovis BCG QcrB assessed as decrease in ATP level at 10 uM incubated for 20 hrs by Bactiter-Glo microbial cell viability assay.
Test [2] has the same test system. As to the kind of experiment: Inhibition of Mycobacterium bovis BCG QcrB harboring CydAB deletion mutant assessed as decrease in ATP level at 10 uM incubated for 20 hrs by Bactiter-Glo microbial cell viability assay.
Test [3] shares this test system. As to the kind of experiment: Inhibition of Mycobacterium bovis BCG QcrB harboring CydAB deletion mutant assessed as decrease in ATP level at 0.01 to 10 uM incubated for 20 hrs by Bactiter-Glo microbial cell viability assay. The conditions noted are these: dose 0.01-10 µM.
The test system is the same in test [4]. Kind of test: Inhibition of Mycobacterium bovis BCG QcrB assessed as decrease in ATP level at 0.01 to 10 uM incubated for 20 hrs by Bactiter-Glo microbial cell viability assay. To be noted: dose 0.01-10 µM.

On to `O=C(NCc1ccc(N2CCC(c3ccc(OC(F)(F)F)cc3)CC2)cc1)c1nc2cc(C(F)(F)F)cc([N+](=O)[O-])c2s1`, for which the inhibition entry in test [1] and in test [2] was “Active” throughout.

With `COc1nc2ccc(Br)cc2cc1[C@@H](c1ccccc1)[C@@](O)(CCN(C)C)c1cccc2ccccc12`, the inhibition entry in test [3] and in test [4] was “Active” throughout.

Regarding `CCc1nc2ccc(Cl)cn2c1C(=O)NCc1ccc(N2CCC(c3ccc(OC(F)(F)F)cc3)CC2)cc1` [TELACEBEC], the inhibition entry in test [3] and in test [4] was “Active” throughout.

Consider `O=C(NCc1ccc(N2CCC(c3ccc(OC(F)(F)F)cc3)CC2)cc1)c1sc2c([N+](=O)[O-])cc(C(F)(F)F)cc2[n+]1[O-]`, for which the inhibition entry in test [1] and in test [2] was “Active” each time.
